According to ChEMBL document CHEMBL4814018, “Rationally designed TNF-α inhibitors: Identification of promising cytotoxic agents” (Bioorg Med Chem Lett, 2021):
Active and inactive are the calls of the source. The rule behind the calls is not given here.

How the values were obtained:
BV-2 [1] = assay: Cytotoxicity against mouse BV2 cells incubated for 48 hrs by MTT assay; type: cell-based; conditions: BV-2, 48 h
BV-2 [2] = assay: Antiinflammatory activity against mouse BV2 cells assessed as inhibition of LPS-induced TNFalpha production at 1 uM by enzyme immunoassay; type: functional
BV-2 [3] = assay: Antiinflammatory activity against mouse BV2 cells assessed as reduction in LPS-induced IL6 production at 1 uM by enzyme immunoassay; type: functional, cell-based
BV-2 [4] = assay: Antiinflammatory activity against mouse BV2 cells assessed as decrease in LPS-induced NO production at 1 to 5 uM pretreated with compound followed by LPS stimulation incubated for 4 to 48 hrs by enzyme immunoassay; type: functional, cell-based; conditions: dose 1-5 µM, time 4-48 hrs
RPMI-8226 = assay: Growth inhibition of human RPMI8226 cells at 10 uM incubated for 48 hrs by sulforhodamine B assay relative to control; type: functional; conditions: read-out: GI
HCT-116 = assay: Growth inhibition of human HCT-116 cells at 10 uM incubated for 48 hrs by sulforhodamine B assay relative to control; type: functional; conditions: read-out: GI
SW-620 = assay: Growth inhibition of human SW-620 cells at 10 uM incubated for 48 hrs by sulforhodamine B assay relative to control; type: functional; conditions: read-out: GI
OVCAR-3 = assay: Growth inhibition of human OVCAR-3 cells at 10 uM incubated for 48 hrs by sulforhodamine B assay relative to control; type: functional; conditions: read-out: GI
CAKI-1 = assay: Growth inhibition of human CAKI-1 cells at 10 uM incubated for 48 hrs by sulforhodamine B assay relative to control; type: functional; conditions: read-out: GI
MCF7 = assay: Growth inhibition of human MCF7 cells at 10 uM incubated for 48 hrs by sulforhodamine B assay relative to control; type: functional; conditions: read-out: GI
MDA-MB-231 = assay: Growth inhibition of human MDA-MB-231 cells at 10 uM incubated for 48 hrs by sulforhodamine B assay relative to control; type: functional; conditions: read-out: GI
K562 = assay: Growth inhibition of human K562 cells at 10 uM incubated for 48 hrs by sulforhodamine B assay relative to control; type: functional; conditions: read-out: GI
SR = assay: Growth inhibition of human SR cells at 10 uM incubated for 48 hrs by sulforhodamine B assay relative to control; type: functional; conditions: read-out: GI

In the case of O=C1COCCN1c1ccc(N2C(=O)C(Cl)C2c2cn(Cc3ccc(F)cc3)c3ccccc23)cc1 (centres undefined), the IC50 (BV-2 [1]) is reported as over 10 µM.

With Cc1ccc(S(=O)(=O)n2cc(C3C(Cl)C(=O)N3c3ccc(N4CCOCC4=O)cc3)c3ccccc32)cc1 (centres undefined) the Activity (BV-2 [2]) was “Active”, the Activity (BV-2 [3]) was “Active” and the Activity (BV-2 [4]) was “Active”. It also gave an inhibition of growth at 10 µM (RPMI-8226) of 78%, an inhibition of growth at 10 µM (HCT-116) of 83% and an inhibition of growth at 10 µM (SW-620) of 74%. The inhibition of growth at 10 µM (OVCAR-3) was 70%, the inhibition of growth at 10 µM (CAKI-1) was 75% and the inhibition of growth at 10 µM (MCF7) was 80%. The inhibition of growth at 10 µM (MDA-MB-231) was 83%, the inhibition of growth at 10 µM (K562) was 77% and the inhibition of growth at 10 µM (SR) was 75%. For the same molecule, the IC50 (BV-2 [1]) was over 10 µM.
